Test results taken from US4816438A, “Insulin-selective somatostatin analogs” (The Salk Institute for Biological Studies, priority 1987, dated 1989).
Where a SMILES comes first, the peptide text is derived from it. Bridges are numbered along the chain shown (N, C = ends).

Legend:
[1] = system: cells of rat pituitary glands; assay: in vitro radioimmunoassays of growth hormone release from cultured rat pituitary cells, side-by-side with somatostatin-14; type: cell-based; details: comparative testing in rat pituitary cell cultures
Description: To determine the effectiveness of the peptides to inhibit the release of insulin, in vitro radioimmunoassays are carried out using aSS-28, [Lys^23 ]-aSS-28 and aSS(15-28) in side-by-side comparison with equimolar concentrations of somotostatin-14 having a known effectiveness to inhibit the release of growth hormone induced by the application of isobutyl methyl xanthine to pituitary cells. Cultures are used which include cells of rat pituitary glands removed some four to five days previously in a system that minimizes enzymatic degradation, generally following the procedure set forth in Vale et al., Methods in Enzymology, Hormones and Cyclic Nucleotides (1975) Vol. 37, p. 82. Both cultures of a defined standard medium and cultures which are considered optimal for the secretion of growth hormone, as a result of having additions of either 2% or 10% of serum from a foetal calf, are used for the comparative testing.

[2] = synthetic SS-28; literature report; cited from earlier work

For `CC(C)C[C@H](NC(=O)[C@H](CC(N)=O)NC(=O)[C@H](CC(N)=O)NC(=O)[C@@H](NC(=O)[C@H](CO)NC(=O)[C@H](CC(=O)O)NC(=O)[C@@H](NC(=O)[C@@H](N)CO)C(C)C)[C@@H](C)O)C(=O)N1CCC[C@H]1C(=O)N1CCC[C@H]1C(=O)N[C@@H](CCCNC(=N)N)C(=O)N[C@@H](CCC(=O)O)C(=O)N[C@@H](CCCNC(=N)N)C(=O)N[C@@H](CCCCN)C(=O)N[C@@H](C)C(=O)NCC(=O)N[C@H]1CSSC[C@@H](C(=O)O)NC(=O)[C@H](CO)NC(=O)[C@H]([C@@H](C)O)NC(=O)[C@H](Cc2ccccc2)NC(=O)CNC(=O)[C@H](CCCCN)NC(=O)[C@H](Cc2c[nH]c3ccccc23)NC(=O)[C@H](Cc2ccc(O)cc2)NC(=O)[C@H](Cc2ccccc2)NC(=O)[C@H](CC(N)=O)NC(=O)[C@H](CCCCN)NC1=O` [[Lys^23]-aSS-28] (H-SVDSTNNLPPRERKAGCKNFYWKGFTSC-OH; disulfide 17-28), the “biological activity / potency relative to aSS-28” value [1] was “similarly biologically active although having somewhat lower potencies”.

For somatostatin-28 [SS-28], the “potency when administered in vivo” value [2] is given as “increased potency”.
